Test results published in publication PMC11758220, “Identification of a Privileged Scaffold for Inhibition of Sterol Transport Proteins through the Synthesis and Ring Distortion of Diverse, Pseudo-Natural Products” (ACS Central Science, 2025).

Target: T1, Aster-A (Homo sapiens, UniProt Q96CP6)
T1 construct: endogenous in cells; host or cells: Jurkat cells
T1 sequence (Q96CP6 1-724): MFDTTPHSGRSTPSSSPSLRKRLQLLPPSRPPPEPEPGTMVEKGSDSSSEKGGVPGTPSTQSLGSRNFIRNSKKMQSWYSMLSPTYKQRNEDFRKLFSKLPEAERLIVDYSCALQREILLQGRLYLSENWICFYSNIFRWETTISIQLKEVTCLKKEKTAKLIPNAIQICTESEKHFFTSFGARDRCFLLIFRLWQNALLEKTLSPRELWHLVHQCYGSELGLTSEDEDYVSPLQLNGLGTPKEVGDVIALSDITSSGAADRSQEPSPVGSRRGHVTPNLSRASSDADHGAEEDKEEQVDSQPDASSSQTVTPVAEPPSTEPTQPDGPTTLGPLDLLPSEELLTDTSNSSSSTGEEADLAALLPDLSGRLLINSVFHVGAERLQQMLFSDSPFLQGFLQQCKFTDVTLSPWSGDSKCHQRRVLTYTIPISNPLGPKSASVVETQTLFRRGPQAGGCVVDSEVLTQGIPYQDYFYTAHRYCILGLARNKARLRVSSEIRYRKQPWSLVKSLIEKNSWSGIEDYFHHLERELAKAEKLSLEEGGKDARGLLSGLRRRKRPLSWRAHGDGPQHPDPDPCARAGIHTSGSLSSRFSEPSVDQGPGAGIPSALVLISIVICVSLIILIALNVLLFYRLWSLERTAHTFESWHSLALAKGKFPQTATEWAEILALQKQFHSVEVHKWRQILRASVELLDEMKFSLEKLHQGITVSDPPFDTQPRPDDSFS
Assay: In-cell isothermal shift assay in intact Jurkat cells
Type: cell-based
Settings: 10 μM, 1 h, heated to 50 °C, Western blot
Procedure: Jurkat cells were cultured in RPMI 1640 GlutaMAX supplemented with 10% fetal bovine serum and 1% penicillin-streptomycin at 37 °C, 5% CO2.
In-cell thermal stability assay
To a 15 mL falcon tube were added 3 × 10^5 Jurkat cells in media and centrifuged at 300 × g for three minutes. The supernatant was aspirated, and the cells were resuspended in 4 mL media containing 0.1% DMSO. The cells were gently vortexed to avoid pelleting at 30 minutes intervals. After 1 h incubation at 37 °C and 5% CO2, the cells were washed twice with PBS and collected in 0.9 mL PBS and divided into eight aliquots, each 100 µL in PCR tubes. The aliquots were individually heated at different temperatures (Doppio 2 × 48 well Thermal cycler, VWR). After the heat treatment, 10 µL of PBS containing 4.4 %v/v NP-40 was added to each sample and cells were lysed by freeze-thaw four times. The cell lysates were transferred to 1.5 mL Eppendorf tubes and cen trifuged (Micro Star 30, VWR) at 25000 × g, 4 °C for 25 minutes. The cleared supernatants were collected and further analy sed […]
In-cell isothermal shift assay
To eight 15 mL falcon tubes were added 3 × 10^5 Jurkat cells in 1 mL of media per tube and incubated with indicated test compounds for one hour at 37 °C and 5% CO2. The cells were gently vortexed to avoid pelleting at 30 minutes intervals. After one hour incubation at 37 °C and 5% CO2, the cells were centrifuged at 300 × g for three minutes, washed once with PBS and centrifuged again at 300 × g for three minutes. The cells were then resuspended in 50 µL of PBS in PCR tubes. The samples were then heated at the given temperature (Eppendorf Mastercycler ep Gradie nt S). After the heat treatment, 5 µL of PBS containing 4.4 %v/v NP-40 were added to each sample and cells lysed by freeze-thaw four times. Finally, the cell lysates were completely transferred to 1.5 mL Eppendorf tubes and centrifuged (Micro Star 30, VMR) at 25000 × g, 4 °C for 25 minutes. The cleared supernatants were collected and further analysed by western blotting.
Sodium dodecyl sulfate-polyacrylamide gel electrophoresis and western blotting Sodium dodecyl sulfate-polyacrylamide gel electrophoresis (SDS-PAGE) experiments were carried out using 4-15% precast polyacrylamide gels (Bio-Rad) and run at a constant voltage of 100 V for ten minutes followed by 120 V for one hour. Semidry transfer onto a 0.2 µm nitrocellulose membrane was performed using Bio-Rad Trans-Blot Turbo Transfer System at 1.3 A for seven minutes. For chemiluminescent detection, membranes were blocked in 5% milk in TBST (tris -buffered saline with Tween; 137 mM NaCl, 19 mM Tris-base, 2.7 mM KCl and 0.1 %v/v Tween-20, blocking buffer) for one houre at room temperature. […]
Western blot quantification was performed using LI-COR Image Studio Lite. […]

In the case of `CC12CCC3CC1CCC21C(=Nc2ccc(N4CCOCC4)cc21)O3` (single isomer, unassigned; (-)) [(−)-19a], the “Stabilization of Aster-A toward thermal unfolding in intact Jurkat cells” value was “showed stabilization of Aster-A”.

For `CC(C)Oc1ccc(C(=O)Nc2nc3c(s2)CN(C(=O)OC(C)(C)C)CC3)cc1` [Autogramin-2, reference compound], the “Stabilization of Aster-A toward thermal unfolding in intact Jurkat cells” value was “showed stabilization of Aster-A”.

`C[C@]12CC[C@@H]3C[C@H]1CC[C@@]21C(=Nc2ccc(C(F)(F)F)cc21)O3` [Compound 15g] was tested, and the “Stabilization of Aster-A toward thermal unfolding in intact Jurkat cells” value was “showed stabilization of Aster-A”.

In the case of `CC(C)(C)OC(=O)N1CCN(c2ccc3c(c2)C24CCC5CC(CCC52C)OC4=N3)CC1` (stereo not shown) [Compound 19e], the “Stabilization of Aster-A toward thermal unfolding in intact Jurkat cells” value was “increased stabilization of Aster-A in intact cells”.
